From US9120795B2, “Crystalline form of a β-lactamase inhibitor” (Cubist Pharmaceuticals, Inc., priority 2013, dated 2015)
“Also recorded” adds a separate entry of the source.

How the values were obtained:
[1] = Gravimetric vapour sorption (GVS/DVS), hygroscopicity; format: physicochemical; conditions: DVS, 25° C., 0-90% RH; sulfate
Protocol: Sorption isotherms were obtained using a SMS DVS Intrinsic moisture sorption analyser, controlled by DVS Intrinsic Control software v1.0.1.2 (or v 1.0.1.3). The sample temperature was maintained at 25° C. by the instrument controls. The humidity was controlled by mixing streams of dry and wet nitrogen, with a total flow rate of 200 ml/min The relative humidity was measured by a calibrated Rotronic probe (dynamic range of 1.0-100% RH), located near the sample. The weight change, (mass relaxation) of the sample as a function of % RH was constantly monitored by the microbalance (accuracy ±0.005 mg).
Typically 5-20 mg of sample was placed in a tared mesh stainless steel basket under ambient conditions. The sample was loaded and unloaded at 40% RH and 25° C. (typical room conditions). A moisture sorption isotherm was performed as outlined below (2 scans giving 1 complete cycle). The standard isotherm was performed at 25° C. at 10% RH intervals over a 0-90% RH range Data analysis was undertaken in Microsoft Excel using DVS Analysis Suite v6.2 (or 6.1 or 6.0).
The sample was recovered after completion of the isotherm and re-analysed by XRPD.

[2] = tested on: Ecl.569 (AmpC, clinical); assay: Standard BLI potentiation MIC assay; format: cell-based, Enterobacter spp; conditions: Enterobacter, read-out: MIC of β-lactam with BLI
Protocol: (§1) The experimental protocol was performed according to Clinical and Laboratory Standards Institute (CLSI) guidelines with modifications as described below (CLSI guidelines can be derived from the CLSI document M07-A9 published in January 2012: “Methods for Dilution Antimicrobial Susceptibility Tests for Bacteria That Grow Aerobically; Approved Standard-Ninth Edition”).
(§2) To prepare for MIC testing, frozen glycerol stocks of clinical isolates (Klebsiella pneumoniae, Eschericia coli, Enterobacter spp, Citrobacter spp, or Pseudomonas aeruginosa) were used to streak for isolated colonies on rich, non-selective, tryptic soy agar containing 5% sheep's blood (TSAB). Frozen glycerol stocks of laboratory engineered, isogenic E. coli strains, which contain cloned β-lactamase expressing plasmids were used to streak for isolated colonies on rich, selective LB agar supplemented with 25 μg/mL tetracycline to maintain the plasmid. All strains were incubated at 37° C. for 18-24 hrs. […]
(§3) Plates were incubated for 18-20 hours at 37° C. with aeration (200 rpm). Following incubation, growth was confirmed visually placing plates over a viewing apparatus (stand with a mirror underneath) and then OD600 was measured using a SpectraMax 340PC384 plate reader (Molecular Devices, Sunnyvale, Calif.). Growth was defined as turbidity that could be detected with the naked eye or achieving minimum OD600 of 0.1. […]

[3] = tested on: Cfr.568 (AmpC, clinical); assay: Standard BLI potentiation MIC assay; format: cell-based, Citrobacter spp; conditions: Citrobacter, read-out: MIC of β-lactam with BLI
Protocol: as §1, §2, §3

[4] = Solid form stability at ambient conditions, XRPD; format: physicochemical
Protocol: X-Ray Powder Diffraction patterns were collected on a Bruker D8 diffractometer using Cu Kα radiation (40 kV, 40 mA), 0-20 goniometer, and divergence of V4 and receiving slits, a Ge monochromator and a Lynxeye detector. The instrument is performance checked using a certified Corundum standard (NIST 1976). The software used for data collection was Diffrac Plus XRD Commander v2.6.1 and the data were analysed and presented using Diffrac Plus EVA v13.0.0.2 or v15.0.0.0. Samples were run under ambient conditions as flat plate specimens using powder as received. The sample was gently packed into a cavity cut into polished, zero-background (510) silicon wafer. The sample was rotated in its own plane during analysis. The details of the data collection are: angular range: 2 to 42 °2θ; step size: 0.05 °2θ; collection time: 0.5 s/step. Amorphous material (˜60 mg) was generated as in Procedure 1. The amorphous material was suspended in different solvent systems (3 mL) at 50° C. A sample was withdrawn after 3 h and 24 h. The final product was filtered after 48 h and analysed by XRPD. The solids isolated were re-analysed again by XRPD after few days at ambient conditions (˜25° C. and ˜40% RH).

Compound: O=C1N2C[C@@H](CC[C@H]2c2nnco2)N1OS(=O)(=O)[O-].[Na+] [Hydrate 1, sodium (2S,5R)-2-(1,3,4-oxadiazol-2-yl)-7-oxo-1,6-diazabicyclo[3.2.1]octan-6-yl sulfate]
- hygroscopicity relative to the amorphous form [1]: significantly less hygroscopic than the amorphous form; also recorded: low hygroscopicity relative to amorphous
- MIC [2]: 0.25 to 0.5 µg/mL
- MIC [3]: 1 to 2 µg/mL
- change of crystal form on storage ([4]; 25° C. at 40% relative humidity over 2 days (FIG. 2)): little to no change
- relative stability among the crystalline forms ([4]; ambient conditions (25° C. and 40% RH)): most stable crystalline form
- stability of the form (Summary of Forms, Description) ([4]; sulfate): Stable tri-hydrate
